The values that follow come from US9670170B2, “Resorufin derivatives for treatment of oxidative stress disorders” (BioElectron Technology Corporation, priority 2013, dated 2017).

A word on the EC50: it is the concentration at which the effect is half-maximal.

The first assay deals with FRDA fibroblasts. Briefly: Rescue of BSO-stressed human dermal fibroblasts from Friedreich's Ataxia patients (Calcein AM viability). It is filed as cell-based. The note with it: Homo sapiens, GM04078, 48 h, read-out: Ec50 Average. The method, then: An initial screen was performed to identify compounds effective for the amelioration of redox disorders. Test samples, 4 reference compounds (idebenone, decylubiquinone, Trolox and alpha-tocopherol), and solvent controls were tested for their ability to rescue FRDA fibroblasts stressed by addition of L-buthionine-(S,R)-sulfoximine (BSO), as described in Jauslin et al., Hum. Mol. Genet. 11(24):3055 (2002), Jauslin et al., FASEB J. 17:1972-4 (2003), and International Patent Application WO 2004/003565. […] This specific BSO-mediated cell death can be prevented by administration of antioxidants or molecules involved in the antioxidant pathway, such as alpha-tocopherol, selenium, or small molecule glutathione peroxidase mimetics. However, antioxidants differ in their potency, i.e. the concentration at which they are able to rescue BSO-stressed FRDA fibroblasts.
MEM (a medium enriched in amino acids and vitamins, catalog no. 1-31F24-I) and Medium 199 (M199, catalog no. 1-21F22-I) with Earle's Balanced Salts, without phenol red, were purchased from Bioconcept. Fetal Calf Serum was obtained from PAA Laboratories. Basic fibroblast growth factor and epidermal growth factor were purchased from PeproTech. Penicillin-streptomycin-glutamine mix, L-buthionine (S,R)-sulfoximine, (+)-alpha-tocopherol, decylubiquinone, and insulin from bovine pancreas were purchased from Sigma. Trolox (6-Hydroxy-2,5,7,8-tetramethylchromane-2-carboxylic acid) was obtained from Fluka. Idebenone was obtained from Chemo Iberica. Calcein AM was purchased from Anaspec. Cell culture medium was made by combining 125 ml M199 EBS, 50 ml Fetal Calf Serum, 100 U/ml penicillin, 100 microgram/ml streptomycin, 2 mM glutamine, 10 microgram/ml insulin, 10 ng/ml EGF, and 10 ng/ml bFGF; MEM EBS was added to make the volume up to 500 ml. A 10 mM BSO solution was prepared by dissolving 444 mg BSO in 200 ml of medium (Invitrogen, Carlsbad, Ca.) with subsequent filter-sterilization. During the course of the experiments, this solution was stored at +4° C. The cells were obtained from the Coriell Cell Repositories (Camden, N.J.; repository number GM04078) and grown in 10 cm tissue culture plates. Every third day, they were split at a 1:3 ratio.
The test samples were supplied in 1.5 ml glass vials. The compounds were diluted with DMSO, ethanol or PBS to result in a 5 mM stock solution. Once dissolved, they were stored at −20° C. Reference antioxidants (idebenone, decylubiquinone, alpha-tocopherol and Trolox) were dissolved in DMSO.
Test samples were screened according to the following protocol:
A culture with FRDA fibroblasts was started from a 1 ml vial with approximately 500,000 cells stored in liquid nitrogen. Cells were propagated in 10 cm cell culture dishes by splitting every third day in a ratio of 1:3 until nine plates were available. Once confluent, fibroblasts were harvested. For 54 micro titer plates (96 well-MTP) a total of 14.3 million cells (passage eight) were re-suspended in 480 ml medium, corresponding to 100 microliters medium with 3,000 cells/well. The remaining cells were distributed in 10 cm cell culture plates (500,000 cells/plate) for propagation. The plates were incubated overnight at 37° C. in a atmosphere with 95% humidity and 5% CO2 to allow attachment of the cells to the culture plate.
10% DMSO (242.5 microliters) was added to a well of the microtiter plate. The test compounds were unfrozen, and 7.5 microliters of a 5 mM stock solution was dissolved in the well containing 242.5 microliters of 10% DMSO, resulting in a 150 micromolar master solution. Serial dilutions from the master solution were made. The period between the single dilution steps was kept as short as possible (generally less than 30 seconds). At least 4 hours after attachment into MTP, cells were then treated with the various compound dilutions.
Plates were kept overnight in the cell culture incubator. […]
In the case of `O=c1ccc2nc3ccc(OCc4ccccc4)cc3oc-2c1` [Compound 1], the EC50 is 1 nM.

For `COc1ccc2nc3ccc(=O)cc-3oc2c1` [Compound 3], the EC50 is 1 nM.

As to `O=c1ccc2nc3ccc(O)cc3oc-2c1` [Compound 4], the concentration for a half-maximal effect (EC50) was 84 nM.

In the case of `CCOc1ccc2nc3ccc(=O)cc-3oc2c1` [Compound 5], the EC50 is 0.8 nM.

The assay is the same for the next values; noted with them: Homo sapiens; compounds of the invention; FRDA fibroblasts (GM04078), 1 mM BSO, 48 h; tested three times; read-out: Ec50 Average.
Take `COc1c2nc3ccc(C)cc3oc-2c(C)c(=O)c1OC` [Compound 6]: the EC50 is 2 nM.

As for `COCCN(C)C(=O)c1ccc2nc3c(C)c(C)c(=O)c(C)c-3oc2c1` [Compound 7], the EC50 is 2 nM.

`Cc1c2nc3ccc(C(=O)NCCN4CCOCC4)cc3oc-2c(C)c(=O)c1C` [Compound 8]: the EC50 was 3 nM.

Turning to `Cc1ccc2nc3c(C)c(C)c(=O)c(C)c-3oc2c1C` [Compound 9], the EC50 is 4 nM.

As to `Cc1c2nc3ccc(C(=O)NCCCO)cc3oc-2c(C)c(=O)c1C` [Compound 10], the EC50 was 5 nM.

As to `Cc1ccc2nc3c(C)c(C)c(=O)c(C)c-3oc2c1` [Compound 11], the EC50 was 5 nM.

As for `COCCNC(=O)c1ccc2nc3c(C)c(C)c(=O)c(C)c-3oc2c1` [Compound 12], the EC50 is 6 nM.

With `COc1ccc2nc3c(OC)c(OC)c(=O)c(C)c-3oc2c1` [Compound 13], the EC50 was 12 nM.

For `O=c1ccc2nc3ccc(O[C@@H]4O[C@H](CO)[C@H](O)[C@H](O)[C@H]4O)cc3oc-2c1` [Compound 14], the EC50 was 16 nM.

Take `COCCOCCOCCOCCNC(=O)c1ccc2nc3c(C)c(C)c(=O)c(C)c-3oc2c1` [Compound 15]: the EC50 is 17 nM.

As to `Cc1c2nc3ccc(C(F)(F)F)cc3oc-2c(C)c(=O)c1C` [Compound 17], the EC50 was 23 nM.

Regarding `Cc1c2nc3ccc(C(=O)NCCc4ccccc4)cc3oc-2c(C)c(=O)c1C` [Compound 19], the EC50 was 25 nM.

`Cc1cc(C)c2nc3c(C)c(C)c(=O)c(C)c-3oc2c1` [Compound 20]: the EC50 is 26 nM.

On to `COC(=O)c1ccc2nc3c(C)c(C)c(=O)c(C)c-3oc2c1` [Compound 21], for which the EC50 was 50 nM.

For the molecule `Cc1c2nc3cc(C(F)(F)F)ccc3oc-2c(C)c(=O)c1C` [Compound 22], the EC50 is 54 nM.

For the molecule `Cc1cc2oc3c(C)c(=O)c(C)c(C)c-3nc2cc1S(C)(=O)=O` [Compound 23], the EC50 was 234 nM.

The same assay, now with this note: control compounds; FRDA fibroblasts (GM04078), 1 mM BSO, 48 h; average of three values; read-out: EC50 Average.
Regarding `Cc1c(C)c2c(c(C)c1O)CC[C@@](C)(CCC[C@H](C)CCC[C@H](C)CCCC(C)C)O2` [alpha-tocopherol, reference compound], the EC50 was 300 nM.

The same assay, now with this note: control compounds; FRDA fibroblasts (GM04078), 1 mM BSO, 48 h; first of three experiments; read-out: EC50 Value 1.
For the molecule `Cc1c(C)c2c(c(C)c1O)CC[C@@](C)(CCC[C@H](C)CCC[C@H](C)CCCC(C)C)O2` [alpha-tocopherol, reference compound], the half-maximal effective concentration (EC50) was 400 nM.

Still in this assay, the particulars now being: control compounds; FRDA fibroblasts (GM04078), 1 mM BSO, 48 h; second of three experiments; read-out: EC50 Value 2.
With `Cc1c(C)c2c(c(C)c1O)CC[C@@](C)(CCC[C@H](C)CCC[C@H](C)CCCC(C)C)O2` [alpha-tocopherol, reference compound], the EC50 was 150 nM.

The same assay, now with this note: control compounds; FRDA fibroblasts (GM04078), 1 mM BSO, 48 h; third of three experiments; read-out: EC50 Value 3.
On to `Cc1c(C)c2c(c(C)c1O)CC[C@@](C)(CCC[C@H](C)CCC[C@H](C)CCCC(C)C)O2` [alpha-tocopherol, reference compound], for which the EC50 is 350 nM.
